Results as given in US7820624B2, “Peptide ligands” (ICH Productions Limited, priority 2003, dated 2010).

Legend:
[1] = tested on: human monocyte-derived primary macrophages; assay: Adenoviral transduction of primary macrophages; format: cell-based; details: 10,000 viral particles/cell in 2.5% serum
Procedure: (§1) Day 6 dendritic cells (see Example 1(v) above), or mouse bone marrow derived dendritic cells or mouse Sca1+ve stem cells, see (i) and (ii) above, were plated at 5×10^4 cells per well in a 48 well plate in 500 μl complete medium and allowed to settle for 3 hours at 37° C. Transductions were carried out in complete media, with virus being added at 100,000 viral particles/cell for 24 hours. Cells were harvested by scraping, spun down at 650 g (2000 rpm) for 5 min, resuspended in 300 μl PBS, and kept on ice before analysis. Viral transduction as determined by percentage of GFP positive cells was measured by FACS analysis. To measure percentage viability, 10 μl of 7-amino-actinomycin D (7AAD; Sigma, Poole, Dorset) was added immediately prior to analysis. Viral transduction of macrophages was carried out at 10,000 particles/cell in medium containing 2.5% FCS. For other cell types, cells were seeded overnight at 5×10^4 cells per well in 24-well plates in the appropriate media. Adenovirus was added in OptiMEM at 10,000 viral particles/cell, 1 ml per well in triplicate and incubated for 24 h at 37° C. Cells were then washed twice in PBS, trypsinised, triplicate wells pooled, spun down at 350×g for 5 min and resuspended in 300 μl PBS before analysis by flow cytometry where cell viability was to be measured, 10 μl 7AAD was added just prior to analysis.
10 mls of peripheral blood were diluted 1:1 with HBSS then layered on Lymphoprep (Nycomed), spun at 750 g for 30 min and purified […] were isolated from the interface. Excess Lymphoprep was removed by spinning cells down at 250 g for 10 min and any platelets present were removed by washing in HBSS twice, spinning the cells at 1200 rpm for 10 min each time. Monocytes were then isolated using MACs CD14 microbeads as described in the manufacturer's protocol. The mononuclear cells were plated into a […] flask in 10% FCS, RPMI for 1-2 hours (1 flask per 10 ml blood) before removing the supernatant and adding fresh 10% FCS, RPMI+10 ng/ml MCSF (macrophage colony stimulating factor). Half the medium was replaced with fresh 10% FCS, RPMI+MCSF (10 ng/ml) after 48 hours and the cells were used at day 6, harvesting by scraping the cells from the well.
Viral transduction was carried out at 10,000 particles/cell in medium containing 2.5% FCS. Viral transduction as determined by percentage of GFP positive cells was measured by FACS analysis. Cells were pooled from three separate transduction experiments for the calculation of results.

1HAEo- cells = assay: Adenoviral transduction of 1HAEo- cells; format: cell-based, human; details: 10,000 particles per cell in OptiMEM; listed as peptide A
Procedure: as §1, with “For other cell types, cells were seeded overnight at 5×10^4 cells per well in 24-well plates in the appropriate media. Adenovirus was added in OptiMEM at 10,000 viral particles/cell, 1 ml per well in triplicate and incubated for 24 h at 37° C.” left out
(§2) For transduction of these other cell types, cells were seeded overnight at 5×10^4 cells per well in 24 well plates in the appropriate media. […] Where cell viability was to be measured, 10 μl 7-amino-actinomycin D (7AAD; Sigma, Poole, Dorset) was added just prior to analysis. […]

HMEC-1 cells = assay: Adenoviral transduction of HMEC-1 cells; format: cell-based, human; details: 10,000 particles per cell in OptiMEM; listed as peptide A
Procedure: as §1, with “For other cell types, cells were seeded overnight at 5×10^4 cells per well in 24-well plates in the appropriate media. Adenovirus was added in OptiMEM at 10,000 viral particles/cell, 1 ml per well in triplicate and incubated for 24 h at 37° C.” left out
as §2

HepG2 cells = assay: Adenoviral transduction of HepG2 cells; format: cell-based, human; details: 10,000 particles per cell in OptiMEM; listed as peptide A
Procedure: as §1, with “For other cell types, cells were seeded overnight at 5×10^4 cells per well in 24-well plates in the appropriate media. Adenovirus was added in OptiMEM at 10,000 viral particles/cell, 1 ml per well in triplicate and incubated for 24 h at 37° C.” left out
as §2

[2] = tested on: primary mouse dendritic cells; assay: Adenoviral transduction of mouse dendritic cells; format: cell-based; details: bone marrow derived DCs
Procedure: Mouse dendritic cells were prepared from whole bone marrow flushed from the marrow cavities of the femur and tibia of 5-7 week old A/J mice and cultured in Hepes buffered RPMI+Glutamax (InVitrogen, Paisley, U. K.) supplemented with 10% FCS, penicillin/streptomycin and 20 ng/ml recombinant GM-CSF. Cytokines were added to the same concentration on day 3 and the dendritic cells isolated from the floating cell fraction by MACs CD11c microbeads (Miltenyi Biotec, Bisley, U. K.) on day 6.
as §1, with “To measure percentage viability, 10 μl of 7-amino-actinomycin D (7AAD; Sigma, Poole, Dorset) was added immediately prior to analysis. Viral transduction of macrophages was carried out at 10,000 particles/cell in medium containing 2.5% FCS. For other cell types, cells were seeded overnight at 5×10^4 cells per well in 24-well plates in the appropriate media. Adenovirus was added in OptiMEM at 10,000 viral particles/cell, 1 ml per well in triplicate and incubated for 24 h at 37° C.” left out

[3] = tested on: mouse Sca1-positive stem cells; assay: Adenoviral transduction of mouse Sca1+ve stem cells; format: cell-based
Procedure: Mouse bone marrow cells were isolated as above and Sca1+ve cells were isolated using MACs Sca1 microbeads (Miltenyi Biotec, Bisley, U.K.). These cells were plated at 7×10^4 cells/500 μl in RPMI with Glutamax-1 containing 30% FCS and penicillin/streptomycin and the following cytokines murine SCF (50 ng/ml; Preprotech, London, UK), IL-6 (20 ng/ml; Preprotech, London, UK) and Flt3-L (10 ng/ml) (R&D Systems, Oxford, U. K.).
as §1, with “To measure percentage viability, 10 μl of 7-amino-actinomycin D (7AAD; Sigma, Poole, Dorset) was added immediately prior to analysis. Viral transduction of macrophages was carried out at 10,000 particles/cell in medium containing 2.5% FCS. For other cell types, cells were seeded overnight at 5×10^4 cells per well in 24-well plates in the appropriate media. Adenovirus was added in OptiMEM at 10,000 viral particles/cell, 1 ml per well in triplicate and incubated for 24 h at 37° C.” left out

Neuro-2A cells = assay: Adenoviral transduction of Neuro-2A cells; format: cell-based, mouse; details: 10,000 particles per cell in OptiMEM
Procedure: as §1, with “For other cell types, cells were seeded overnight at 5×10^4 cells per well in 24-well plates in the appropriate media. Adenovirus was added in OptiMEM at 10,000 viral particles/cell, 1 ml per well in triplicate and incubated for 24 h at 37° C.” left out
as §2

[4] = tested on: day 4 immature dendritic cells; assay: Phenotyping of LID-transfected dendritic cells (HLA-DR, CD86); format: cell-based, human; details: LID with lipofectin, peptide:DNA 7:1
Procedure: Immature day 4 dendritic cells were transfected with LID complex with peptide A at a charge ratio 7:1 to the DNA (plasmid pEGFP-N1), with lipofectin added at a weight ratio of 0.75 to the DNA for 4 hours in RPMI before incubating in complete medium with cytokines for 24 hours. As a control, dendritic cells were incubated in complete medium for 24 hours (immature Dendritic cells) Cells were then harvested by scraping and stained for the presence of maturation markers as follows: a minimum of 5×10^4 cells in a volume of less than 2 ml medium were added to the recommended amount of antibody and incubated for 20 min on ice. 2 ml of ice-cold PBS was added before centrifugation at 300×g for 5 min at 4° C. The supernatant was flicked off and the pellet resuspended in 300 μl ice cold 1% paraformaldehyde-PBS. Cells from each sample were stained with antibodies to HLA-DR, and CD86 and isotype matched control antibodies. Cells were analysed by flow cytometry using a Epics XL (Beckman Coulter, High Wycombe, UK.) and the EXPO32 analysis software (Beckman Coulter).

Substance	Transduction, % cells transduced ([1]; listed as A) [%]	Transduction, % cells transduced ([1]; listed as peptide A) [%]	Transduction, % cells transduced (1HAEo- cells) [%]	Transduction, % cells transduced (HMEC-1 cells) [%]	Transduction, % cells transduced (HepG2 cells) [%]	Transduction efficiency [2] [%]	Transduction efficiency [3] [%]	Transduction, % GFP-positive cells (Neuro-2A cells) [%]	HLA-DR and CD86 on transfected cells [4]
SHVKLNS (Synthetic peptide binding to dendritic cells) [listing 1 of 2 here]	67.6	67.6	82.9	95.7	88.5	71.7	5.4	63.5	
SHVKLNS (Synthetic peptide binding to dendritic cells) [listing 2 of 2 here]									upregulated CD86 and HLA-DR
